From US9452980B2, “Substituted benzamides” (Hoffmann-La Roche Inc., priority 2009, dated 2016)
Where a name gives a salt, the structure may show the parent alone. Read-outs that look alike come from different tables or passages of the source.

Key:
rat TAAR1 = rat TAAR1 (Rattus norvegicus (Rat), UniProt Q923Y9); experiment: Radioligand binding assay on rat TAAR1; conditions: read-out: Ki (μM) rat
How it was run: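 Membranes from HEK293 cells stably expressing rat TAAR1, with Kd checked per batch by saturation. Competition with ³H-(S)-4-[(ethyl-phenyl-amino)-methyl]-4,5-dihydro-oxazol-2-ylamine, compounds 10 pM–10 μM in duplicate, 1 hr at 4 °C. Filtration then scintillation counting; nonspecific binding defined with 10 μM unlabeled ligand.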

mouse TAAR1 = mouse TAAR1 (Mus musculus (Mouse), UniProt Q923Y8); experiment: Radioligand binding assay on mouse TAAR1; conditions: read-out: Ki (μM) mouse
How it was run: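 Displacement of the tritiated oxazol-2-ylamine radioligand was measured by filtration and scintillation counting after 1 h incubation at 4 °C. Test concentrations ran 10 pM–10 μM in duplicate, with 10 μM cold ligand giving nonspecific binding. The receptor source was membranes of a stable mouse TAAR1 HEK293 line.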

[1] = rat TAAR1, HEK-293 membranes, second value of cell mouse/rat
[2] = mouse TAAR1, HEK-293 membranes, first value of cell mouse/rat

Chain of mouse TAAR1 (Q923Y8 whole entry): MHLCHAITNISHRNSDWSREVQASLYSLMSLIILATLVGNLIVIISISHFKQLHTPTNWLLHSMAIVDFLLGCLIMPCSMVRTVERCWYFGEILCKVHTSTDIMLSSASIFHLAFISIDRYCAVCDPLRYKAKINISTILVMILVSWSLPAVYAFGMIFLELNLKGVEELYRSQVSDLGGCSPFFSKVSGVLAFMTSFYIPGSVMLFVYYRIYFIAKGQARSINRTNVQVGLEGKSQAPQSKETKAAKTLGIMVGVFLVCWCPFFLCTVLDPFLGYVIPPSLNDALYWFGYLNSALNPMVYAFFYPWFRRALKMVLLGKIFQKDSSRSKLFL
Chain of rat TAAR1 (Q923Y9 whole entry): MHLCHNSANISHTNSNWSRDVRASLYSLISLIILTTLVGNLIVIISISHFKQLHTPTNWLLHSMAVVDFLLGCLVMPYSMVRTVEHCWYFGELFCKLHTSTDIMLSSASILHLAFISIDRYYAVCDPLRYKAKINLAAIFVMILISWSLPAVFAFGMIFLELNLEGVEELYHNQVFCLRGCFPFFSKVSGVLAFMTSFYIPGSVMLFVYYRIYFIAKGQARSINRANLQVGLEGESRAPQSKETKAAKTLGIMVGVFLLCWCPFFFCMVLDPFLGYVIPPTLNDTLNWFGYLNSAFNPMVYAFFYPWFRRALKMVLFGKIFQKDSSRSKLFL

| Structure (SMILES) | Ki (rat TAAR1; [1]) [µM] | Ki (mouse TAAR1; [2]) [µM] | Ki (rat TAAR1) [µM] | Ki (mouse TAAR1) [µM] |
| --- | --- | --- | --- | --- |
| Cc1ccc(NC(=O)Nc2ccc(C3CNCCO3)cc2)cc1 (racemic) [Example 293, (RS)-1-(4-(Morpholin-2-yl)phenyl)-3-p-tolylurea hydrochloride] | 0.0014 | 0.0074 | – | – |
| O=C(Nc1ccc(C2CNCCO2)cc1)Nc1ccc(C(F)(F)F)cc1 (racemic) [Example 291, (RS)-1-(4-(Morpholin-2-yl)phenyl)-3-(4-(trifluoromethyl)phenyl)urea hydrochloride] | – | 0.0012 | 0.0017 | – |
| CC(OC(=O)Nc1ccc(C2CCNC2)cc1)c1ccc(Cl)cc1 (racemic) [Example 127, (RS)-(4-Pyrrolidin-3-yl-phenyl)-carbamic acid (RS)-1-(4-chloro-phenyl)-ethyl ester] | 0.002 | 0.0006 | – | – |
| O=C(Nc1ccc([C@H]2CNCCO2)cc1)c1ccc(Cl)cc1 [Example 144, 4-Chloro-N—((S)-4-morpholin-2-yl-phenyl)-benzamide hydrochloride] | – | – | 0.0011 | 0.0188 |
| O=C(Nc1ccc(C2CNCCO2)cc1)Nc1cccc(Cl)c1 (racemic) [Example 303, (RS)-1-(3-Chlorophenyl)-3-(4-(morpholin-2-yl)phenyl)urea hydrochloride] | 0.0005 | 0.002 | – | – |
| COc1ccc2nc(C(=O)Nc3ccc(C4CCNC4)cc3)ccc2c1 (racemic) [Example 91, (RS)-6-Methoxy-quinoline-2-carboxylic acid (4-pyrrolidin-3-yl-phenyl)-amide hydrochloride] | 0.0223 | 0.0039 | – | – |
| O=C(Nc1ccc([C@@H]2CNCCO2)cc1)c1cc(Cl)nc(Cl)c1 [Example 270, (R)-2,6-Dichloro-N-(4-(morpholin-2-yl)phenyl)isonicotinamide hydrochloride] | – | – | 0.0045 | 0.0049 |
| O=C(Nc1ccc([C@@H]2CNCCO2)cc1)c1ccc(Cl)cc1F [Example 229, (R)-4-Chloro-2-fluoro-N-(4-(morpholin-2-yl)phenyl)benzamide hydrochloride] | 0.0019 | – | – | 0.0218 |
| O=C(Nc1ccc(C2CCCNC2)cc1)c1ccc(C(F)(F)F)cc1 (racemic) [Example 98, (RS)—N-(4-Piperidin-3-yl-phenyl)-4-trifluoromethyl-benzamide hydrochloride] | 0.0114 | 0.0041 | – | – |
| CC(C(=O)Nc1ccc(C2CCCNC2)cc1)c1cccc(Cl)c1 (racemic) [Example 111, (RS)-2-(3-Chloro-phenyl)-N—((RS)-4-piperidin-3-yl-phenyl)-propionamide] | 0.0382 | 0.0349 | – | – |
| C[C@H]1CNC[C@H](c2ccc(NC(=O)c3cccc(Cl)c3)cc2)O1 [Example 309, 3-Chloro-N-(4-((2S,6S)-6-methylmorpholin-2-yl)phenyl)benzamide hydrochloride] | 0.0023 | – | – | 0.116 |
| O=C(Nc1ccc(CCC2CCCNC2)cc1)c1ccc(Cl)cn1 (racemic) [Example 118, (RS)-5-Chloro-pyridine-2-carboxylic acid [4-(2-piperidin-3-yl-ethyl)-phenyl]-amide hydrochloride] | 0.0081 | 0.13 | – | – |
| Cc1cc(C(=O)Nc2ccc([C@@H]3CNCCO3)cc2)cc(Cl)n1 [Example 285, (R)-2-Chloro-6-methyl-N-(4-(morpholin-2-yl)phenyl)isonicotinamide hydrochloride] | 0.005 | – | – | 0.0082 |
| CCSc1cccc(C(=O)Nc2ccc([C@@H]3CCCNC3)cc2)c1 [Example 246, (S)-3-(Ethylthio)-N-(4-(piperidin-3-yl)phenyl)benzamide] | 0.0012 | 0.0151 | – | – |
| O=C(O)c1ccc(COc2ccc(C(=O)Nc3ccc(C4CNCCO4)cc3)cc2)cc1 (racemic) [Example 212, (RS)-4-((4-(4-(morpholin-2-yl)phenylcarbamoyl)phenoxy)methyl)benzoic acid hydrochloride] | 0.296 | 2.5 | – | – |
| O=C(Nc1ccc(C2CNCCO2)cc1)c1cnc(-c2ccccc2)s1 (racemic) [Example 231, (RS)—N-(4-(Morpholin-2-yl)phenyl)-2-phenylthiazole-5-carboxamide hydrochloride] | 0.0014 | – | – | 0.0043 |
| O=C(Nc1ccc(CCC2CCCN2)cc1)c1ccc(F)cc1 (racemic) [Example 156, (RS)-4-Fluoro-N-[4-(2-pyrrolidin-2-yl-ethyl)-phenyl]-benzamide hydrochloride] | 0.002 | 0.153 | – | – |
| O=C(Nc1ccc(C2CCNC2)cc1)c1ccc(Cl)cn1 (racemic) [Example 42, (RS)-5-Chloro-pyridine-2-carboxylic acid (4-pyrrolidin-3-yl-phenyl)-amide hydrochloride] | 0.0354 | 0.0033 | – | – |
| Cc1cc(C(=O)Nc2ccc([C@H]3CNCCO3)cc2)cc(Cl)n1 [Example 286, (S)-2-Chloro-6-methyl-N-(4-(morpholin-2-yl)phenyl)isonicotinamide hydrochloride] | 0.0044 | – | – | 0.0222 |
| C[C@H]1CO[C@@H](c2ccc(NC(=O)c3cccc(Cl)c3)cc2)CN1 [Example 322, 3-Chloro-N-[4-((2S,5S)-5-methyl-morpholin-2-yl)-phenyl]-benzamide hydrochloride] | – | – | 0.0017 | 0.0188 |
| CCc1cnc(C(=O)Nc2ccc([C@@H]3CCCNC3)cc2)cn1 [Example 274, (S)-5-Ethyl-N-(4-(piperidin-3-yl)phenyl)pyrazine-2-carboxamide hydrochloride] | 0.0174 | 2.51 | – | – |
| O=C(Nc1ccc(CCC2CCCNC2)cc1)c1ncc(F)cc1F (racemic) [Example 135, (RS)-3,5-Difluoro-pyridine-2-carboxylic acid [4-(2-piperidin-3-yl-ethyl)-phenyl]-amide hydrochloride] | 0.0134 | 1.27 | – | – |
| N#Cc1ccc(C(=O)Nc2ccc(C3CCNC3)cc2)cc1 (racemic) [Example 55, (RS)-4-Cyano-N-(4-pyrrolidin-3-yl-phenyl)-benzamide hydrochloride] | 0.0745 | – | – | 0.0048 |
| O=C(Nc1ccc(C2CNCCO2)cc1)c1ccn(-c2ccccc2)n1 (racemic) [Example 299, (RS)—N-(4-(Morpholin-2-yl)phenyl)-1-phenyl-1H-pyrazole-3-carboxamide hydrochloride] | 0.0014 | 0.0022 | – | – |
| O=C(Nc1ccc([C@H]2CCCNC2)cc1)c1ccc(Cl)nc1 [Example 161, (R)-6-Chloro-N-(4-(piperidin-3-yl)phenyl)nicotinamide hydrochloride] | 0.0101 | – | – | 0.0403 |
| Cc1cc(C(=O)Nc2ccc(C3CNCCO3)cc2)ccn1 (racemic) [Example 294, (RS)-2-Methyl-N-(4-(morpholin-2-yl)phenyl)isonicotinamide dihydrochloride] | 0.0226 | 1.18 | – | – |
| O=C(Nc1ccc(CCC2CCCCN2)cc1)c1ccc(Cl)cc1 (racemic) [Example 169, (RS)-4-Chloro-N-(4-(2-(piperidin-2-yl)ethyl)phenyl)benzamide hydrochloride] | 0.0027 | 0.0607 | – | – |
| O=C(Nc1ccc(C2CCNC2)cc1)c1ccc(Cl)cc1Cl (racemic) [Example 19, (RS)-2,4-Dichloro-N-(4-pyrrolidin-3-yl-phenyl)-benzamide hydrochloride] | 0.0189 | 0.0035 | – | – |
